Laboratory results as given in the kinase profiling compilation of Christmann-Franck et al. (2016).

Columns and labels:
Assay in all cases: radiometric filter-binding kinase assay
[1] = system: AKT1 (human), P31749 [S473D]
[2] = biological target: BRSK2 (human) (UniProt Q8IWQ3)
[3] = biological target: CLK2 (human) (UniProt P49760)
[4] = biological target: CSNK2A1 (human) (UniProt P68400)
[5] = biological target: DAPK1 (human) (UniProt P53355)
[6] = biological target: DYRK1A (human) (UniProt Q13627)
[7] = biological target: DYRK3 (human) (UniProt O43781)
[8] = biological target: EPHB3 (human) (UniProt P54753)
[9] = biological target: IKBKB (human) (UniProt O14920)
[10] = biological target: IKBKE (human) (UniProt Q14164)
[11] = biological target: IRAK4 (human) (UniProt Q9NWZ3)
[12] = biological target: MAP2K6 (human) (UniProt P52564)
[13] = biological target: MAP3K11 (human) (UniProt Q16584)
[14] = biological target: MAP3K7 TAB1 (human) (UniProt Q15750+O43318)
[15] = biological target: MAPK11 (human) (UniProt Q15759)
[16] = biological target: MAPK12 (human) (UniProt P53778)
[17] = biological target: MAPK14 (human) (UniProt Q16539)
[18] = biological target: MAPK3 (human) (UniProt P27361)
[19] = biological target: MAPK8 (human) (UniProt P45983)
[20] = biological target: MAPKAPK3 (human) (UniProt Q16644)
[21] = biological target: MAPKAPK5 (human) (UniProt Q8IW41)
[22] = biological target: MKNK2 (human) (UniProt Q9HBH9)
[23] = biological target: NTRK1 (human) (UniProt P04629)
[24] = biological target: PAK4 (human) (UniProt O96013)
[25] = biological target: PIM1 (human) (UniProt P11309)
[26] = biological target: PIM2 (human) (UniProt Q9P1W9)
[27] = biological target: PIM3 (human) (UniProt Q86V86)
[28] = biological target: PLK1 (human) (UniProt P53350)
[29] = system: ROCK2 (rat); conditions: accession and sequence are those of the human protein
[30] = biological target: RPS6KA1 KD1 KD2 (human) (UniProt Q15418)
[31] = biological target: RPS6KA3 KD1 KD2 (human) (UniProt P51812)
[32] = system: RPS6KB1 (human), P23443 [T412E]
[33] = system: SGK1 (human), O00141 [S422D]
[34] = biological target: STK3 (human) (UniProt Q13188)
[35] = biological target: TBK1 (human) (UniProt Q9UHD2)
Chain of TBK1 (human) (Q9UHD2 whole entry, looked up): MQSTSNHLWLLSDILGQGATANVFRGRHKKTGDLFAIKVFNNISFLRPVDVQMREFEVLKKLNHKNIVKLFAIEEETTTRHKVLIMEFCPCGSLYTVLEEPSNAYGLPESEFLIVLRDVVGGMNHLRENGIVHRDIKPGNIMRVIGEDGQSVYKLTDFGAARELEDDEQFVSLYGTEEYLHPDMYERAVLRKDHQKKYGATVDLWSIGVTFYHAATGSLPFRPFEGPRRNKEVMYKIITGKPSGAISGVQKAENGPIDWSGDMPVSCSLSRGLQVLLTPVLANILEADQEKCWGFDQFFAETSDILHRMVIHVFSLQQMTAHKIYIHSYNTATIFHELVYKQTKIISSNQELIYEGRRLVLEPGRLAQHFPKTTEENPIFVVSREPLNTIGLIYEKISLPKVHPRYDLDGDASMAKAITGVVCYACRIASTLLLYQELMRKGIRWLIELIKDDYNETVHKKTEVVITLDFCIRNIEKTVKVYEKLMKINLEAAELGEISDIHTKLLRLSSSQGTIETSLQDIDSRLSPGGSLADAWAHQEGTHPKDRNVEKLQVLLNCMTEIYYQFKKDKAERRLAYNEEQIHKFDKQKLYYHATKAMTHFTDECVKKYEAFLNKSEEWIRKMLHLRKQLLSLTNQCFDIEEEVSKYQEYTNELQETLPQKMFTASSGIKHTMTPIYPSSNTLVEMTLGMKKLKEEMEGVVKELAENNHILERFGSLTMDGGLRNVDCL

Chain of SGK1 (human), O00141 [S422D] (O00141 whole entry S422D, looked up): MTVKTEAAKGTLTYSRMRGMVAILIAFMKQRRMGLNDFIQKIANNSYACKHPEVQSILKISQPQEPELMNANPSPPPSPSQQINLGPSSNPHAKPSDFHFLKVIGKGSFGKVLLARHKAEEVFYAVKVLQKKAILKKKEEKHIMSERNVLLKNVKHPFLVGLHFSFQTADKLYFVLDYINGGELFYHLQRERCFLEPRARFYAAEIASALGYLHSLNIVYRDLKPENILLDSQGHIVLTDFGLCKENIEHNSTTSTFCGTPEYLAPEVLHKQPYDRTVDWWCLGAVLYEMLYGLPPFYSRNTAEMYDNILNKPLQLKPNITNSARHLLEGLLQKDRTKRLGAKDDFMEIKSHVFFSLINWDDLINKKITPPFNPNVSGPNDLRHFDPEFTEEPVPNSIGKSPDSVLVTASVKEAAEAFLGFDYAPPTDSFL
Chain of PIM1 (human) (P11309 whole entry, looked up): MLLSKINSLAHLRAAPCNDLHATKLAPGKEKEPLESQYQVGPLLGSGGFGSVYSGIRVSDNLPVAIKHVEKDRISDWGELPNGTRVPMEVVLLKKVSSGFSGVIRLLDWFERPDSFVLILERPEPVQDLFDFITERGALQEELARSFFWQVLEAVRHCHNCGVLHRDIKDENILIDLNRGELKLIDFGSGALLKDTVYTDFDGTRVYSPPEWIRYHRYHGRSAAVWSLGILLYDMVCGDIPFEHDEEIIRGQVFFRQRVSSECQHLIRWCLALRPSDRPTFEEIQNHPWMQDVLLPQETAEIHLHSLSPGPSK
Chain of MKNK2 (human) (Q9HBH9 whole entry, looked up): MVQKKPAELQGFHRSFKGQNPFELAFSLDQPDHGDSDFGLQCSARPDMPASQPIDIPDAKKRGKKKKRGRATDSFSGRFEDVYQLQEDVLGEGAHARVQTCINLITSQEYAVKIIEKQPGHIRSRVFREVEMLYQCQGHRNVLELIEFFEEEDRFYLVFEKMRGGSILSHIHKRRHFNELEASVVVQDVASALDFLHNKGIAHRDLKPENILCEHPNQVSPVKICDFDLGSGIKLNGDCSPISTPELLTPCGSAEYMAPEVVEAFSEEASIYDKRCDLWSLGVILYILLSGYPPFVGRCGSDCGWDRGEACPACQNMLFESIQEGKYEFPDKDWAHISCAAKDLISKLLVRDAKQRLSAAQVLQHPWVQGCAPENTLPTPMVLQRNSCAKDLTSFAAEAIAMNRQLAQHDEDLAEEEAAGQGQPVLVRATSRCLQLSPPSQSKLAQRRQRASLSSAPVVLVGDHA
Chain of IKBKE (human) (Q14164 whole entry, looked up): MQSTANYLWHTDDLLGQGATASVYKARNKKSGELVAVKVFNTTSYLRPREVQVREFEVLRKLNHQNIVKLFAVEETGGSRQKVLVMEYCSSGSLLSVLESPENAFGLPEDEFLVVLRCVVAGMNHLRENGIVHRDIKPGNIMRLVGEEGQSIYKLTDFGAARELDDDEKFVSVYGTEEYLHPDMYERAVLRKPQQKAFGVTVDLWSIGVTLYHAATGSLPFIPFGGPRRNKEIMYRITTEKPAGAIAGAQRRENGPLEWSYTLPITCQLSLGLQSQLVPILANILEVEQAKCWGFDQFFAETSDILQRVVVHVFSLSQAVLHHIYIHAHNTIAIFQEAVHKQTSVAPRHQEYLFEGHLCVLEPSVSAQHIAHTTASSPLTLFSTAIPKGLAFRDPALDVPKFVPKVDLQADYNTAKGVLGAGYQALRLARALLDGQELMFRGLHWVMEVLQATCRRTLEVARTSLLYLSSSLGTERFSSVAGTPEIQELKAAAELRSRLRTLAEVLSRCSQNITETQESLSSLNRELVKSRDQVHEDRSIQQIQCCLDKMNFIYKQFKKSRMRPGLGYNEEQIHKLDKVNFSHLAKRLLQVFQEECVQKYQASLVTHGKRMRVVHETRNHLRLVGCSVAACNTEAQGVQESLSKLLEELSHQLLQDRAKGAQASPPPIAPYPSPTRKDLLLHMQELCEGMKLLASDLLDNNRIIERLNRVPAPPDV
Chain of IRAK4 (human) (Q9NWZ3 whole entry, looked up): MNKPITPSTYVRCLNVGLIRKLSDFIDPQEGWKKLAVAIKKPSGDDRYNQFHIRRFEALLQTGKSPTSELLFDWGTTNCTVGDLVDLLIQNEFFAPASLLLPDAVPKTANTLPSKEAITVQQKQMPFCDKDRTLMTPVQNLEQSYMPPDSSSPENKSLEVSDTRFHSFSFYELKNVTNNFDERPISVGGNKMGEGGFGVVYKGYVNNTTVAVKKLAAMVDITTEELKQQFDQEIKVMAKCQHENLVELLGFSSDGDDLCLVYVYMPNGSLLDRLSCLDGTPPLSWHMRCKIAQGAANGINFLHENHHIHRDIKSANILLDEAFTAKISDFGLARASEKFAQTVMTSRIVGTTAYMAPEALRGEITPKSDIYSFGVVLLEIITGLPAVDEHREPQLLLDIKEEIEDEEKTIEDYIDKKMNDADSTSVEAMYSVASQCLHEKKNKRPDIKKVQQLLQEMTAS
Chain of MAPKAPK3 (human) (Q16644 whole entry, looked up): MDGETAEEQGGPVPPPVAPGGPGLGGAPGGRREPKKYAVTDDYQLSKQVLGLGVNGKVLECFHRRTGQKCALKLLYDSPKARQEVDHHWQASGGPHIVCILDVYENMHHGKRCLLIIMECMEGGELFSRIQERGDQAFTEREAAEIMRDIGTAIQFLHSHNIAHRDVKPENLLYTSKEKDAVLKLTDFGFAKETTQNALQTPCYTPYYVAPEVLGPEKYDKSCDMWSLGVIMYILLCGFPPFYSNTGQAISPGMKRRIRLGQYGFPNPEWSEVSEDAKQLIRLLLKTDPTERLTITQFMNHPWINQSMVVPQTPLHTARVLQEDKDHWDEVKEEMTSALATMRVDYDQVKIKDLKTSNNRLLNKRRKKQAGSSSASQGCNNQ
Chain of RPS6KA1 KD1 KD2 (human) (Q15418 whole entry, looked up): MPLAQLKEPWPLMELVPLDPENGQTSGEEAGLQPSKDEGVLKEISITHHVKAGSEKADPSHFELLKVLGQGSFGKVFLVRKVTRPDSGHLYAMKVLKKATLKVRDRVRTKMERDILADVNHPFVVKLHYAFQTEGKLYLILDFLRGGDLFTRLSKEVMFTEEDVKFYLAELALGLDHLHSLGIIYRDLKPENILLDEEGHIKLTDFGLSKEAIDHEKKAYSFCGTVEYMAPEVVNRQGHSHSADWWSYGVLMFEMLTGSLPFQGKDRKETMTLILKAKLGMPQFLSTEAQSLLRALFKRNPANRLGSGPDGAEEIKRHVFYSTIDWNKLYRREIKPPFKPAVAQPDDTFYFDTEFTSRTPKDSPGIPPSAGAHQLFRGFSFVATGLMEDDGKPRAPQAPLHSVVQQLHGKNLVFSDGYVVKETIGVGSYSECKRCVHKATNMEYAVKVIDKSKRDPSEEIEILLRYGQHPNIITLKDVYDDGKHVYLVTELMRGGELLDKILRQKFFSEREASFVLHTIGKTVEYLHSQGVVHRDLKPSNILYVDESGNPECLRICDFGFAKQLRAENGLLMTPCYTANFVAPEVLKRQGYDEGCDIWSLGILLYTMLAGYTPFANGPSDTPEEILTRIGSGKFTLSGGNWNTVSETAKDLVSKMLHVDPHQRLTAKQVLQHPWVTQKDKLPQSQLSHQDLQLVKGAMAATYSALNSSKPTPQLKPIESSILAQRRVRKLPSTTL
Chain of STK3 (human) (Q13188 whole entry, looked up): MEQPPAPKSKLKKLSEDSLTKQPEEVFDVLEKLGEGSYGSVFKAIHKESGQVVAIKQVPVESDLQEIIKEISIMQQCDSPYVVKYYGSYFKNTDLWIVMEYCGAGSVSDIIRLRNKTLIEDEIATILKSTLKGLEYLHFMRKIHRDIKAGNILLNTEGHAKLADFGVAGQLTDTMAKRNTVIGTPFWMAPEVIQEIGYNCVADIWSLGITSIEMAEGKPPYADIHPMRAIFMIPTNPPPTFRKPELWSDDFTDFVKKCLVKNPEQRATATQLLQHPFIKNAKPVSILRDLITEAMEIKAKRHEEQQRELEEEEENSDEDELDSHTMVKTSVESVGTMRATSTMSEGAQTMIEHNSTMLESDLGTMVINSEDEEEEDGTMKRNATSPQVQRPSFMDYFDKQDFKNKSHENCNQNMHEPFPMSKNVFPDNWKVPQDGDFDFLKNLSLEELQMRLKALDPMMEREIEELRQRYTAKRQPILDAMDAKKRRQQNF

Q: How did the residual activity ([1]; compound 0.1 µM) turn out when `c1ccc2c(-c3cnn4cc(-c5ccc(N6CCNCC6)cc5)cnc34)ccnc2c1` was run?
A: 102%

Q: What about the residual activity ([1]; compound 1.0 µM) of the same molecule?
A: 103%

Q: What about the residual activity ([2]; compound 0.1 µM) of the same molecule?
A: 88%

Q: What about the residual activity ([2]; compound 1.0 µM) of the same molecule?
A: 68%

Q: And the residual activity ([2]; compound 10.0 µM)?
A: 20%

Q: What about the residual activity ([3]; compound 0.1 µM) of the same molecule?
A: 67%

Q: What about the residual activity ([3]; compound 1.0 µM) of the same molecule?
A: 21%

Q: What about the residual activity ([3]; compound 10.0 µM) of the same molecule?
A: 5%

Q: And the residual activity ([4]; compound 0.1 µM)?
A: 90%

Q: What about the residual activity ([4]; compound 1.0 µM) of the same molecule?
A: 89%

Q: What about the residual activity ([4]; compound 10.0 µM) of the same molecule?
A: 81%

Q: What about the residual activity ([5]; compound 0.1 µM) of the same molecule?
A: 89%

Q: What about the residual activity ([5]; compound 1.0 µM) of the same molecule?
A: 91%

Q: And the residual activity ([5]; compound 10.0 µM)?
A: 72%

Q: And the residual activity ([6]; compound 0.1 µM)?
A: 75%

Q: And the residual activity ([6]; compound 1.0 µM)?
A: 40%

Q: What about the residual activity ([6]; compound 10.0 µM) of the same molecule?
A: 9%

Q: What about the residual activity ([7]; compound 0.1 µM) of the same molecule?
A: 86%

Q: What about the residual activity ([7]; compound 1.0 µM) of the same molecule?
A: 89%

Q: What about the residual activity ([8]; compound 0.1 µM) of the same molecule?
A: 88%

Q: And the residual activity ([8]; compound 1.0 µM)?
A: 75%

Q: What about the residual activity ([8]; compound 10.0 µM) of the same molecule?
A: 48%

Q: What about the residual activity ([9]; compound 1.0 µM) of the same molecule?
A: 98%

Q: What about the residual activity ([9]; compound 10.0 µM) of the same molecule?
A: 83%

Q: What about the residual activity ([10]; compound 0.1 µM) of the same molecule?
A: 87%

Q: What about the residual activity ([10]; compound 1.0 µM) of the same molecule?
A: 89%

Q: What about the residual activity ([10]; compound 10.0 µM) of the same molecule?
A: 56%

Q: And the residual activity ([11]; compound 0.1 µM)?
A: 88%

Q: What about the residual activity ([11]; compound 1.0 µM) of the same molecule?
A: 91%

Q: And the residual activity ([11]; compound 10.0 µM)?
A: 53%

Q: And the residual activity ([12]; compound 0.1 µM)?
A: 87%

Q: What about the residual activity ([12]; compound 1.0 µM) of the same molecule?
A: 89%

Q: And the residual activity ([12]; compound 10.0 µM)?
A: 104%

Q: And the residual activity ([13]; compound 0.1 µM)?
A: 86%

Q: What about the residual activity ([13]; compound 1.0 µM) of the same molecule?
A: 33%

Q: What about the residual activity ([13]; compound 10.0 µM) of the same molecule?
A: 8%

Q: What about the residual activity ([14]; compound 0.1 µM) of the same molecule?
A: 84%

Q: What about the residual activity ([14]; compound 1.0 µM) of the same molecule?
A: 44%

Q: And the residual activity ([14]; compound 10.0 µM)?
A: 13%

Q: And the residual activity ([15]; compound 1.0 µM)?
A: 104%

Q: What about the residual activity ([15]; compound 10.0 µM) of the same molecule?
A: 96%

Q: And the residual activity ([16]; compound 0.1 µM)?
A: 78%

Q: And the residual activity ([16]; compound 1.0 µM)?
A: 79%

Q: And the residual activity ([17]; compound 0.1 µM)?
A: 78%

Q: What about the residual activity ([17]; compound 1.0 µM) of the same molecule?
A: 84%

Q: What about the residual activity ([17]; compound 10.0 µM) of the same molecule?
A: 75%

Q: And the residual activity ([18]; compound 0.1 µM)?
A: 89%

Q: What about the residual activity ([18]; compound 1.0 µM) of the same molecule?
A: 97%

Q: And the residual activity ([18]; compound 10.0 µM)?
A: 90%

Q: And the residual activity ([19]; compound 0.1 µM)?
A: 89%

Q: And the residual activity ([19]; compound 1.0 µM)?
A: 101%

Q: And the residual activity ([19]; compound 10.0 µM)?
A: 78%

Q: What about the residual activity ([20]; compound 0.1 µM) of the same molecule?
A: 80%

Q: And the residual activity ([20]; compound 1.0 µM)?
A: 79%

Q: What about the residual activity ([20]; compound 10.0 µM) of the same molecule?
A: 86%

Q: And the residual activity ([21]; compound 0.1 µM)?
A: 89%

Q: And the residual activity ([21]; compound 1.0 µM)?
A: 100%

Q: And the residual activity ([21]; compound 10.0 µM)?
A: 60%

Q: And the residual activity ([22]; compound 0.1 µM)?
A: 90%

Q: What about the residual activity ([22]; compound 1.0 µM) of the same molecule?
A: 60%

Q: And the residual activity ([22]; compound 10.0 µM)?
A: 34%

Q: What about the residual activity ([23]; compound 0.1 µM) of the same molecule?
A: 87%

Q: What about the residual activity ([23]; compound 1.0 µM) of the same molecule?
A: 71%

Q: What about the residual activity ([23]; compound 10.0 µM) of the same molecule?
A: 38%

Q: And the residual activity ([24]; compound 0.1 µM)?
A: 82%

Q: And the residual activity ([24]; compound 1.0 µM)?
A: 94%

Q: And the residual activity ([24]; compound 10.0 µM)?
A: 62%

Q: And the residual activity ([25]; compound 0.1 µM)?
A: 83%

Q: What about the residual activity ([25]; compound 1.0 µM) of the same molecule?
A: 83%

Q: And the residual activity ([25]; compound 10.0 µM)?
A: 82%

Q: And the residual activity ([26]; compound 0.1 µM)?
A: 98%

Q: And the residual activity ([26]; compound 1.0 µM)?
A: 104%

Q: And the residual activity ([26]; compound 10.0 µM)?
A: 92%

Q: What about the residual activity ([27]; compound 0.1 µM) of the same molecule?
A: 105%

Q: What about the residual activity ([27]; compound 1.0 µM) of the same molecule?
A: 103%

Q: And the residual activity ([27]; compound 10.0 µM)?
A: 84%

Q: What about the residual activity ([28]; compound 0.1 µM) of the same molecule?
A: 97%

Q: What about the residual activity ([28]; compound 1.0 µM) of the same molecule?
A: 100%

Q: What about the residual activity ([28]; compound 10.0 µM) of the same molecule?
A: 91%

Q: What about the residual activity ([29]; compound 0.1 µM) of the same molecule?
A: 98%

Q: And the residual activity ([29]; compound 1.0 µM)?
A: 86%

Q: What about the residual activity ([29]; compound 10.0 µM) of the same molecule?
A: 85%

Q: What about the residual activity ([30]; compound 0.1 µM) of the same molecule?
A: 86%

Q: And the residual activity ([30]; compound 1.0 µM)?
A: 79%

Q: What about the residual activity ([30]; compound 10.0 µM) of the same molecule?
A: 29%

Q: And the residual activity ([31]; compound 0.1 µM)?
A: 73%

Q: What about the residual activity ([31]; compound 1.0 µM) of the same molecule?
A: 69%

Q: What about the residual activity ([31]; compound 10.0 µM) of the same molecule?
A: 57%

Q: And the residual activity ([32]; compound 1.0 µM)?
A: 92%

Q: What about the residual activity ([32]; compound 10.0 µM) of the same molecule?
A: 84%

Q: And the residual activity ([33]; compound 0.1 µM)?
A: 62%

Q: And the residual activity ([33]; compound 1.0 µM)?
A: 79%

Q: And the residual activity ([33]; compound 10.0 µM)?
A: 70%

Q: What about the residual activity ([34]; compound 0.1 µM) of the same molecule?
A: 102%

Q: What about the residual activity ([34]; compound 1.0 µM) of the same molecule?
A: 104%

Q: And the residual activity ([34]; compound 10.0 µM)?
A: 76%

Q: And the residual activity ([35]; compound 0.1 µM)?
A: 74%

Q: And the residual activity ([35]; compound 1.0 µM)?
A: 62%

Q: And the residual activity ([35]; compound 10.0 µM)?
A: 26%
